Positions of bridges follow the written chain, without caps; N, C: chain ends. Non-standard residues stand in square brackets, D forms with d. Residues, ends and D or L forms follow the SMILES beside them. *: point of attachment. hPhe(3-Cl-4-CF3) = N[C@@H](CCc1ccc(C(F)(F)F)c(Cl)c1)C(=O)O; hPhe(3-F,4-CF3) = N[C@@H](CCc1ccc(C(F)(F)F)c(F)c1)C(=O)O; NMePhe(4-CF3) = CN[C@@H](Cc1ccc(C(F)(F)F)cc1)C(=O)O; hPhe(4-CF3) = N[C@@H](CCc1ccc(C(F)(F)F)cc1)C(=O)O; 3Oxa8azabicyclo(3.2.1)octane = C1CC2COCC1N2*; NMePhe(4-Me) = CN[C@@H](Cc1ccc(C)cc1)C(=O)O; hPhe(4-Cl) = N[C@@H](CCc1ccc(Cl)cc1)C(=O)O; NMeAla(cPent) = CN[C@@H](CC1CCCC1)C(=O)O; NMeGly(cPent) = CN[C@H](C(=O)O)C1CCCC1; NMeCha = CN[C@@H](CC1CCCCC1)C(=O)O; NMeChg = CN[C@H](C(=O)O)C1CCCCC1; N(CH2CH2)2CF2 = FC1(F)CCN(*)CC1; NMeD = CN[C@@H](CC(=O)O)C(=O)O; NMeL = CN[C@@H](CC(C)C)C(=O)O; NMeNva = CCC[C@H](NC)C(=O)O; NMeV = CN[C@H](C(=O)O)C(C)C; NMeAbu = CC[C@H](NC)C(=O)O; NMeS = CN[C@@H](CO)C(=O)O; Morpholide = C1CN(*)CCO1; NMeA = CN[C@@H](C)C(=O)O; Pyrrolidide = C1CCN(*)C1; Ac5c = NC1(C(=O)O)CCCC1; Aze = O=C(O)[C@@H]1CCN1; Sar = CNCC(=O)O; Propyl = CCC*
How the values were obtained:
[1] = biological target: T1, Kras and SOS1 (biotin-tagged human Kras loaded with GDP, His-tagged human SOS1) (Homo sapiens, UniProt P01116, G12D); test: Protein-protein interaction inhibition between Kras and SOS1 (KrasGl2D-SOS PPI) using AlphaScreen; type: binding; settings: AlphaScreen; biotin-tagged human Kras loaded with GDP, His-tagged human SOS1; read-out: KRAS G12D-SOS PPI IC50
T1 construct: made in house; host or cells: E. coli (stated for Kras only)
T1 sequence (P01116 1-188 isoform P01116-2 G12D): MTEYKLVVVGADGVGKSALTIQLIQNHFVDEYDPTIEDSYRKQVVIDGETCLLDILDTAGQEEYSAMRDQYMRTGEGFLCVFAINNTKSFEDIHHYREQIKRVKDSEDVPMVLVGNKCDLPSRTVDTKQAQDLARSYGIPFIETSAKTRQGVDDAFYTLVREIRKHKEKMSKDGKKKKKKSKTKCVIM
How it was run: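 Kras was produced in E. coli, purified, then loaded with GDP. It was paired via streptavidin acceptor beads with His-SOS1 held on nickel donor beads, and proximity signal at 520-620 nm was read after 680 nm illumination.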

[2] = test system: Human pancreatic cancer cell line AsPC-1; test: Measurement of AsPC-1 cell growth inhibition (AsPC-1 CGI); type: cell-based; settings: 96 h
How it was run: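 AsPC-1 cells in 15% FBS RPMI-1640 were exposed to test compound for 96 hours at 37° C, with CellTiter-Glo as endpoint.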

Row | SMILES | IC50 [1] | IC50 [2]
1 | CC[C@H](C)[C@@H]1NC(=O)[C@H](CC(C)C)N(C)C(=O)C[C@@H](C(=O)N2CCCC2)N(C)C(=O)[C@H](C2CCCCC2)N(C)C(=O)C2(CCCC2)NC(=O)[C@@H]2CCCN2C(=O)[C@H](CCc2ccc(C(F)(F)F)cc2)NC(=O)CN(C)C(=O)[C@H](CC2CCCCC2)N(C)C(=O)CN(C)C(=O)CN(C)C1=O [Compound 1939] ([NMeL]I[Sar][Sar][NMeCha][Sar][hPhe(4-CF3)]P[Ac5c][NMeChg][NMeD]-Pyrrolidide; lactam N-11) | 0.71 nM | 100 to 500 nM
2 | CC[C@H](C)[C@@H]1NC(=O)[C@H](CC(C)C)N(C)C(=O)C[C@@H](C(=O)N2C3CCC2COC3)N(C)C(=O)[C@H](C2CCCCC2)N(C)C(=O)C2(CCCC2)NC(=O)[C@@H]2CCCN2C(=O)[C@H](CCc2ccc(C(F)(F)F)cc2)NC(=O)CN(C)C(=O)[C@H](CC2CCCCC2)N(C)C(=O)CN(C)C(=O)CN(C)C1=O [Compound 1940] ([NMeL]I[Sar][Sar][NMeCha][Sar][hPhe(4-CF3)]P[Ac5c][NMeChg][NMeD]-{3Oxa8azabicyclo(3.2.1)octane}; lactam N-11) | 1.6 nM | 100 to 500 nM
3 | CC[C@H](C)[C@@H]1NC(=O)[C@H](CC(C)C)N(C)C(=O)C[C@@H](C(=O)N2CCOCC2)N(C)C(=O)[C@H](C2CCCCC2)N(C)C(=O)C2(CCCC2)NC(=O)[C@@H]2CCCN2C(=O)[C@H](CCc2ccc(Cl)cc2)NC(=O)CN(C)C(=O)[C@H](CC2CCCCC2)N(C)C(=O)CN(C)C(=O)CN(C)C1=O [Compound 1941] ([NMeL]I[Sar][Sar][NMeCha][Sar][hPhe(4-Cl)]P[Ac5c][NMeChg][NMeD]-Morpholide; lactam N-11) | 1.5 nM | 50 to 100 nM
4 | CC[C@H](C)[C@@H]1NC(=O)[C@H](CC(C)C)N(C)C(=O)C[C@@H](C(=O)N2CCOCC2)N(C)C(=O)[C@H](C2CCCCC2)N(C)C(=O)C2(CCCC2)NC(=O)[C@@H]2CCCN2C(=O)[C@H](CCc2ccc(C(F)(F)F)cc2)NC(=O)CN(C)C(=O)[C@H](CC2CCCCC2)N(C)C(=O)CN(C)C(=O)CN(C)C1=O [Compound 1947] ([NMeL]I[Sar][Sar][NMeCha][Sar][hPhe(4-CF3)]P[Ac5c][NMeChg][NMeD]-Morpholide; lactam N-11) | 1.2 nM | 50 to 100 nM
5 | CC[C@H](C)[C@@H]1NC(=O)[C@H](CC(C)C)N(C)C(=O)C[C@@H](C(=O)N2CCOCC2)N(C)C(=O)[C@H](C2CCCCC2)N(C)C(=O)C2(CCCC2)NC(=O)[C@@H]2CCCN2C(=O)[C@H](CCc2ccc(C(F)(F)F)c(Cl)c2)NC(=O)CN(C)C(=O)[C@H](Cc2ccc(C(F)(F)F)cc2)N(C)C(=O)CN(C)C(=O)CN(C)C1=O [Compound 1948] ([NMeL]I[Sar][Sar][NMePhe(4-CF3)][Sar][hPhe(3-Cl-4-CF3)]P[Ac5c][NMeChg][NMeD]-Morpholide; lactam N-11) | 0.54 nM | 20 to 50 nM
6 | CCCOC[C@H]1C(=O)N(C)CC(=O)N[C@@H](CCc2ccc(C(F)(F)F)c(Cl)c2)C(=O)N2CCC[C@H]2C(=O)NC2(CCCC2)C(=O)N(C)[C@@H](C2CCCCC2)C(=O)N(C)[C@H](C(=O)N2CCOCC2)CC(=O)N(C)[C@@H](CCC)C(=O)N[C@@H]([C@@H](C)CC)C(=O)N(C)CC(=O)N(C)CC(=O)N1C [Compound 1949] ([NMeNva]I[Sar][Sar][NMeS](Propyl)[Sar][hPhe(3-Cl-4-CF3)]P[Ac5c][NMeChg][NMeD]-Morpholide; lactam N-11) | 0.6 nM | 100 to 500 nM
7 | CC[C@H](C)[C@@H]1NC(=O)[C@H](CC(C)C)N(C)C(=O)C[C@@H](C(=O)N2C3CCC2COC3)N(C)C(=O)[C@H](C2CCCCC2)N(C)C(=O)C2(CCCC2)NC(=O)[C@@H]2CCCN2C(=O)[C@H](CCc2ccc(Cl)cc2)NC(=O)CN(C)C(=O)[C@H](CC2CCCCC2)N(C)C(=O)CN(C)C(=O)CN(C)C1=O [Compound 1950] ([NMeL]I[Sar][Sar][NMeCha][Sar][hPhe(4-Cl)]P[Ac5c][NMeChg][NMeD]-{3Oxa8azabicyclo(3.2.1)octane}; lactam N-11) | 2.8 nM | 20 to 50 nM
8 | CC[C@H](C)[C@@H]1NC(=O)[C@H](CC(C)C)N(C)C(=O)C[C@@H](C(=O)N2C3CCC2COC3)N(C)C(=O)[C@H](C(C)C)N(C)C(=O)C2(CCCC2)NC(=O)[C@@H]2CCCN2C(=O)[C@H](CCc2ccc(C(F)(F)F)c(Cl)c2)NC(=O)CN(C)C(=O)[C@H](CC2CCCCC2)N(C)C(=O)CN(C)C(=O)CN(C)C1=O [Compound 1954] ([NMeL]I[Sar][Sar][NMeCha][Sar][hPhe(3-Cl-4-CF3)]P[Ac5c][NMeV][NMeD]-{3Oxa8azabicyclo(3.2.1)octane}; lactam N-11) | 2.3 nM | 100 to 500 nM
9 | CC[C@H](C)[C@@H]1NC(=O)[C@H](CC(C)C)N(C)C(=O)C[C@@H](C(=O)N(C)C)N(C)C(=O)[C@H](C2CCCC2)N(C)C(=O)C2(CCCC2)NC(=O)[C@H](CC(=O)N2CCC(F)(F)CC2)N(C)C(=O)[C@H](CCc2ccc(C(F)(F)F)c(Cl)c2)NC(=O)CN(C)C(=O)[C@H](CC2CCCCC2)N(C)C(=O)[C@@H]2CCN2C(=O)[C@H](C)N(C)C1=O [Compound 1955] ([NMeL]I[NMeA][Aze][NMeCha][Sar][hPhe(3-Cl-4-CF3)][NMeD](N(CH2CH2)2CF2)[Ac5c][NMeGly(cPent)][NMeD]-NMe2; lactam N-11) | 1.5 nM | 100 to 500 nM
10 | CCCOC[C@H]1C(=O)N(C)CC(=O)N[C@@H](CCc2ccc(C(F)(F)F)c(Cl)c2)C(=O)N2CCC[C@H]2C(=O)NC2(CCCC2)C(=O)N(C)[C@@H](C2CCCCC2)C(=O)N(C)[C@H](C(=O)N2C3CCC2COC3)CC(=O)N(C)[C@@H](CC)C(=O)N[C@@H]([C@@H](C)CC)C(=O)N(C)CC(=O)N(C)CC(=O)N1C [Compound 1956] ([NMeAbu]I[Sar][Sar][NMeS](Propyl)[Sar][hPhe(3-Cl-4-CF3)]P[Ac5c][NMeChg][NMeD]-{3Oxa8azabicyclo(3.2.1)octane}; lactam N-11) | 0.76 nM | 100 to 500 nM
11 | CC[C@H](C)[C@@H]1NC(=O)[C@H](CC(C)C)N(C)C(=O)C[C@@H](C(=O)N2C3CCC2COC3)N(C)C(=O)[C@H](C2CCCCC2)N(C)C(=O)C2(CCCC2)NC(=O)[C@@H]2CCCN2C(=O)[C@H](CCc2ccc(C(F)(F)F)c(F)c2)NC(=O)CN(C)C(=O)[C@H](CC2CCCCC2)N(C)C(=O)CN(C)C(=O)CN(C)C1=O [Compound 1957] ([NMeL]I[Sar][Sar][NMeCha][Sar][hPhe(3-F,4-CF3)]P[Ac5c][NMeChg][NMeD]-{3Oxa8azabicyclo(3.2.1)octane}; lactam N-11) | 1.2 nM | 100 to 500 nM
12 | CC[C@H](C)[C@@H]1NC(=O)[C@H](CC)N(C)C(=O)C[C@@H](C(=O)N2CCCC2)N(C)C(=O)[C@H](C2CCCCC2)N(C)C(=O)C2(CCCC2)NC(=O)[C@@H]2CCCN2C(=O)[C@H](CCc2ccc(C(F)(F)F)c(Cl)c2)NC(=O)CN(C)C(=O)[C@H](CC2CCCCC2)N(C)C(=O)CN(C)C(=O)CN(C)C1=O [Compound 1958] ([NMeAbu]I[Sar][Sar][NMeCha][Sar][hPhe(3-Cl-4-CF3)]P[Ac5c][NMeChg][NMeD]-Pyrrolidide; lactam N-11) | 0.45 nM | 20 to 50 nM
13 | CC[C@H](C)[C@@H]1NC(=O)[C@H](CC)N(C)C(=O)C[C@@H](C(=O)N2C3CCC2COC3)N(C)C(=O)[C@H](C2CCCCC2)N(C)C(=O)C2(CCCC2)NC(=O)[C@@H]2CCCN2C(=O)[C@H](CCc2ccc(C(F)(F)F)c(Cl)c2)NC(=O)CN(C)C(=O)[C@H](Cc2ccc(C)cc2)N(C)C(=O)CN(C)C(=O)CN(C)C1=O [Compound 1963] ([NMeAbu]I[Sar][Sar][NMePhe(4-Me)][Sar][hPhe(3-Cl-4-CF3)]P[Ac5c][NMeChg][NMeD]-{3Oxa8azabicyclo(3.2.1)octane}; lactam N-11) | 0.63 nM | 50 to 100 nM
14 | CC[C@H](C)[C@@H]1NC(=O)[C@H](CC(C)C)N(C)C(=O)C[C@@H](C(=O)N2CCOCC2)N(C)C(=O)[C@H](C2CCCCC2)N(C)C(=O)C2(CCCC2)NC(=O)[C@@H]2CCCN2C(=O)[C@H](CCc2ccc(C(F)(F)F)c(F)c2)NC(=O)CN(C)C(=O)[C@H](CC2CCCCC2)N(C)C(=O)CN(C)C(=O)CN(C)C1=O [Compound 1965] ([NMeL]I[Sar][Sar][NMeCha][Sar][hPhe(3-F,4-CF3)]P[Ac5c][NMeChg][NMeD]-Morpholide; lactam N-11) | 0.55 nM | 50 to 100 nM
15 | CC[C@H](C)[C@@H]1NC(=O)[C@H](CC(C)C)N(C)C(=O)C[C@@H](C(=O)N2CCCC2)N(C)C(=O)[C@H](C2CCCCC2)N(C)C(=O)C2(CCCC2)NC(=O)[C@@H]2CCCN2C(=O)[C@H](CCc2ccc(Cl)cc2)NC(=O)CN(C)C(=O)[C@H](CC2CCCCC2)N(C)C(=O)CN(C)C(=O)CN(C)C1=O [Compound 1968] ([NMeL]I[Sar][Sar][NMeCha][Sar][hPhe(4-Cl)]P[Ac5c][NMeChg][NMeD]-Pyrrolidide; lactam N-11) | 1.2 nM | 50 to 100 nM
16 | CC[C@H](C)[C@@H]1NC(=O)[C@H](CC(C)C)N(C)C(=O)C[C@@H](C(=O)N2CCCC2)N(C)C(=O)[C@H](C2CCCCC2)N(C)C(=O)C2(CCCC2)NC(=O)[C@@H]2CCCN2C(=O)[C@H](CCc2ccc(C(F)(F)F)c(Cl)c2)NC(=O)CN(C)C(=O)[C@H](CC2CCCC2)N(C)C(=O)CN(C)C(=O)CN(C)C1=O [Compound 1969] ([NMeL]I[Sar][Sar][NMeAla(cPent)][Sar][hPhe(3-Cl-4-CF3)]P[Ac5c][NMeChg][NMeD]-Pyrrolidide; lactam N-11) | 0.61 nM | 50 to 100 nM
